Source: article PMC6154319, “Intestinal Transport Characteristics and Metabolism of C-Glucosyl Dihydrochalcone, Aspalathin” (Molecules : A Journal of Synthetic Chemistry and Natural …, 2017)
Marks after values point to notes of the source that are not given here.

Target: T1, GLUT2 (Homo sapiens, UniProt P11168)
T1 sequence (P11168 1-524): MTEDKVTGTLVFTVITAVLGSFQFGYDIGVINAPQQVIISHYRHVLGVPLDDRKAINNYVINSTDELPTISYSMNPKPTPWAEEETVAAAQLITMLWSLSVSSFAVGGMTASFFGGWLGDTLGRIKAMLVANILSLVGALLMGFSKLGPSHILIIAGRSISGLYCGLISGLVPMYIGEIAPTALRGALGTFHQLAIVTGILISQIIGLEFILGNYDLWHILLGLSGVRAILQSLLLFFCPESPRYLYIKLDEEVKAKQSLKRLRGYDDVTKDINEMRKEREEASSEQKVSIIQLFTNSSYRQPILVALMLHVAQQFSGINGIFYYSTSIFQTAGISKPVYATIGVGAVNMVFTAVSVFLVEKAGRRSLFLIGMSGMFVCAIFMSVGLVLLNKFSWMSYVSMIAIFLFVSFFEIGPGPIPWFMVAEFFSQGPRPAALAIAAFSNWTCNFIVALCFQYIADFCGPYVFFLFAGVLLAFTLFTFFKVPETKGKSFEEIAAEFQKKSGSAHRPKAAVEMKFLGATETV
Conditions: aspalathin 100 µM; 100 µM phloretin (GLUT2)

## O=C(CCc1ccc(O)c(O)c1)c1c(O)cc(O)c([C@@H]2O[C@H](CO)[C@@H](O)[C@H](O)[C@H]2O)c1O [Aspalathin]
  Papp a-b + Inhibitor (phloretin): 1.67 ± 0.43 ^c ×10^−6 cm/s
  Papp b-a + Inhibitor (phloretin): 1.95 ± 1.1 ^c ×10^−6 cm/s
